Reference: patent publication US5607691A, “Compositions and methods for enhanced drug delivery” (priority 1995, dated 1997)
Counter-ions that a name gives are not always drawn.

test: in vitro; assay type: in vitro ADME, human; conditions: Table 4; human serum, 37° C.
Source text: Table 4 lists the serum half-lives for several model compounds and two representative pharmaceutical agent-chemical modifier complexes using an in vitro assay system described in the Experimental section below. Of course, the serum half-lives will vary in vivo depending upon the age and health condition of the patient. Each complex comprises a model compound or a pharmaceutical agent, a spacer group, and a chemical modifier. Many of the model compounds utilize 4-nitrophenyl(ethanol, propanol, or cyclohexanol) or 4-nitrophenylethylamine as the "model" pharmaceutical agent. A more complete listing of serum half-lives may be found in the Experimental section below.
General procedure for serum hydrolysis of pharmaceutical agent-modifier complexes
Stock solutions (6 mM) of the pharmaceutical agent-modifier complexes were prepared in ethanol (by vortexing, sonication or warming at 37° C. if necessary). If required for solubility, a drop of dimethylsulfoxide, dimethylformamide or methanol may be added. (Acetonitrile cannot be used because it deactivates the serum enzymes.)
HPLC separation methods were established for each study by dilution of the above stock solution (6 μl) in acetonitrile (1 ml) to give a 36 μM solution. Samples (10 μl) were injected onto a Nucleosil 5C8 (250×4 mmID) and guard column (11×4 mm ID) and eluted with a mobile phase of approximately 65% HPLC grade water and 35% of a solution of 0.1% trifluoroacetic acid in acetonitrile, the exact proportions being adjusted in each case to give optimum separation and run times.
Freshly defrosted human serum (3 ml, Sigma) was warmed at 37° C. for five minutes and then 60 μl of the agent-modifier complex stock solution was added with vortexing. […] The aliquots were added to 800 μl of 2% zinc sulfate solution in a 1.5 ml disposable microcentrifuge tube, vortexed immediately and centrifuged at 14,000 RPM for 3 minutes. The supernatants (10 μl) were then injected onto the HPLC and peak areas were used to determine the % remaining. Serum blanks were prepared similarly by addition of serum to the zinc sulfate solution followed by centrifugation, and time=0 samples were also prepared by adding serum to the zinc sulfate solution followed by addition of the complex and separation by centrifugation. The time=0 samples, as well as the original stock solutions, were also used to study the stability of the complex in the absence of enzyme. Half-lives were calculated using the equation
by plotting time (x) vs. ln % remaining (y) to obtain the slope (m) and the y intercept (b).

| SMILES | In vitro Half-Life |
| --- | --- |
| CC(=O)OC(CC(=O)OCCCCCCCCCC(=O)OCC(=O)OC1=CC2=CC[C@H]3[C@@H]4CC[C@H](C(C)=O)[C@@]4(C)CC[C@@H]3[C@@]2(C)CC1)C[N+](C)(C)C (stereo partly drawn) [Progesterone 3-{2-O-[10-O-(O-acetylcarnitinyl)decanoyl]glycolic acid} enol ester] | 28.9 min |

same assay, conditions: Table 5; human serum, 37° C.

| SMILES | Serum Half-life |
| --- | --- |
| CC(=O)OC(CC(=O)OCCCCCCCCCC(=O)OCC(=O)OC1=CC2=CC[C@H]3[C@@H]4CC[C@H](C(C)=O)[C@@]4(C)CC[C@@H]3[C@@]2(C)CC1)C[N+](C)(C)C (stereo partly drawn) [Progesterone 3-{2-O-[10-O-(O-acetylcarnitinyl)decanoyl]glycolic acid} enol ester] | 28.9 min |
| CC1OC(OC2C(C)OC(OC3C(C)OC(OC4CCC5(C)C(CCC6C5CC(OC(=O)OCOC(=O)CCCCC[N+](C)(C)C)C5(C)C(C7=CC(=O)OC7)CCC65O)C4)CC3OC(=O)OCOC(=O)CCCCC[N+](C)(C)C)CC2OC(=O)OCOC(=O)CCCCC[N+](C)(C)C)CC2OC(=O)OC12 (stereo not drawn) [digoxin-3',3",12-tris-(6-trimethylaminohexanoyloxymethyl carbonate)-3'",4""-cyclic carbonate, tribromide salt] | 840 min |

same assay, conditions: human, serum

| SMILES | Serum Half-life |
| --- | --- |
| C#CC[N+](C)(C(C)Cc1ccccc1)C(C)OC(=O)CCC.[Br-] (stereo not drawn) [deprenyl-N-butyroyloxy-1-ethyl, bromide salt] | 28 min |

same assay, conditions: human, serum, Table 5; human serum, 37° C.; read-out: Serum Half-life (converted)

| SMILES | half-life |
| --- | --- |
| COc1ccc2c(c1)c(CC(=O)O[C@H](CC(=O)O)C[N+](C)(C)C)c(C)n2C(=O)c1ccc(Cl)cc1 [O-indomethacinyl-(L-carnitine hydrochloride)] | > 30 min |
| CC(=O)OC1CC(C(=O)OCCc2ccc([N+](=O)[O-])cc2)[N+](C)(C)C1 (stereo not drawn) [betonicine-O-acetate 4-nitrophenethyl ester] | 6 min |
| C#CC[N+](C)(COC(C)=O)C(C)Cc1ccccc1 (stereo not drawn) [deprenyl-N-acetoxymethyl, bromide salt] | 4.2 min |
| C#CC[N+](C)(COC(=O)c1ccccc1)C(C)Cc1ccccc1 (stereo not drawn) [deprenyl-N-benzoyloxymethyl, iodide salt] | 5 min |
| C#CC[N+](C)(COC(=O)CCC)C(C)Cc1ccccc1 (stereo not drawn) [deprenyl-N-butyroyloxymethyl, iodide salt] | 0.283 min |
| C#CC[N+](C)(COC(=O)OCC)C(C)Cc1ccccc1 (stereo not drawn) [deprenyl-N-ethoxycarbonyloxymethyl, iodide salt] | 1.18 min |
| C#CC[N+](C)(COC(=O)OCCCCCCCC)C(C)Cc1ccccc1 (stereo not drawn) [deprenyl-N-octyloxycarbonyloxymethyl, iodide salt] | 0.433 min |
| C#CC[N+](C)(COC(=O)C(C)(C)C)C(C)Cc1ccccc1 (stereo not drawn) [deprenyl-N-pivaloyloxymethyl, iodide salt] | 20 min |
| C[C@]12CC[C@H](OC(=O)CCCCCN3CCOCC3)C[C@H]1CC[C@@H]1[C@@H]2CC[C@]2(C)[C@@H](C3=CC(=O)OC3)CC[C@]12O [digitoxigenin-3-(6-morpholino-hexanoate)] | 14900 min |
| CC(=O)O[C@H](CC(=O)O[C@H]1CC[C@@]2(C)[C@H](CC[C@@H]3[C@@H]2CC[C@]2(C)[C@@H](C4=CC(=O)OC4)CC[C@]32O)C1)C[N+](C)(C)C [digitoxigenin-3-(O-acetyl-L-carnitine) ester, chloride salt] | 324 min |
| C[C@]12CC[C@H](OC(=O)OCC[N+](C)(C)C)C[C@H]1CC[C@@H]1[C@@H]2CC[C@]2(C)[C@@H](C3=CC(=O)OC3)CC[C@]12O [digitoxigenin-3-(O-choline chloride carbonate) ester] | 13.6 min |
| CCCCCCCCCCCCCCCC(=O)O[C@H](CC(=O)O[C@H]1CC[C@@]2(C)[C@H](CC[C@@H]3[C@@H]2CC[C@]2(C)[C@@H](C4=CC(=O)OC4)CC[C@]32O)C1)C[N+](C)(C)C [digitoxigenin-3-(O-palmityl-L-carnitine) ester, chloride salt] | ~180 min |
| CC(=O)OC(CC(=O)NCCCCCCOC(=O)O[C@H]1[C@@H](O)C[C@H](O[C@H]2[C@@H](O)C[C@H](O[C@H]3[C@@H](O)C[C@H](O[C@H]4CC[C@@]5(C)[C@H](CC[C@@H]6[C@@H]5CC[C@]5(C)[C@@H](C7=CC(=O)OC7)CC[C@]65O)C4)O[C@@H]3C)O[C@@H]2C)O[C@@H]1C)C[N+](C)(C)C (stereo partly drawn) [digitoxin-4"'-6-[O-(acetylcarnitinamido)hexyl]carbonate ester] | 34.8 min |
| C[C@H]1O[C@@H](O[C@H]2[C@@H](O)C[C@H](O[C@H]3[C@@H](O)C[C@H](O[C@H]4CC[C@@]5(C)[C@H](CC[C@@H]6[C@@H]5CC[C@]5(C)[C@@H](C7=CC(=O)OC7)CC[C@]65O)C4)O[C@@H]3C)O[C@@H]2C)C[C@H](O)[C@@H]1OC(=O)OCC[N+](C)(C)C [digitoxin-4"'-(choline chloride) carbonate ester] | 5.3 min |
| C[C@H]1O[C@@H](O[C@H]2[C@@H](O)C[C@H](O[C@H]3[C@@H](O)C[C@H](O[C@H]4CC[C@@]5(C)[C@H](CC[C@@H]6[C@@H]5C[C@@H](OC(=O)OCOC(=O)CCCCC[N+](C)(C)C)[C@]5(C)[C@@H](C7=CC(=O)OC7)CC[C@]65O)C4)O[C@@H]3C)O[C@@H]2C)C[C@@H]2OC(=O)O[C@@H]21 [digoxin 12-(6-trimethylaminohexanoyloxymethyl carbonate)-3"',4"'-cyclic carbonate, bromide salt] | 168 min |
| CC1OC(OC2CCC3(C)C(CCC4C3CC(O)C3(C)C(C5=CC(=O)OC5)CCC43O)C2)CC(O)C1OC1CC(O)C(OC2CC3OC(=O)OC3C(C)O2)C(C)O1 (stereo not drawn) [digoxin-3'",4'"-cyclic carbonate] | 0.15 min |
| CC1OC(OC2C(C)OC(OC3C(C)OC(OC4CCC5(C)C(CCC6C5CC(O)C5(C)C(C7=CC(=O)OC7)CCC65O)C4)CC3OC(=O)OCOC(=O)CCCCC[N+](C)(C)C)CC2OC(=O)OCOC(=O)CCCCC[N+](C)(C)C)CC2OC(=O)OC12 (stereo not drawn) [digoxin-3',3"-bis-(6-trimethylaminohexanoyloxymethyl carbonate)-3'",4'"-cyclic carbonate, bromide salt] | 600 min |
| CC1OC(OC2C(C)OC(OC3C(C)OC(OC4CCC5(C)C(CCC6C5CC(O)C5(C)C(C7=CC(=O)OC7)CCC65O)C4)CC3OC(=O)OCC[N+](C)(C)C)CC2OC(=O)OCC[N+](C)(C)C)CC2OC(=O)OC12 (stereo not drawn) [digoxin-3',3"-bis-(choline carbonate)-3'",4'"-cyclic carbonate, dibromide salt] | 2040 min |
| C[C@H]1O[C@@H](O[C@H]2[C@@H](O)C[C@H](O[C@H]3[C@@H](O)C[C@H](O[C@H]4CC[C@@]5(C)[C@H](CC[C@@H]6[C@@H]5C[C@@H](O)[C@]5(C)[C@@H](C7=CC(=O)OC7)CC[C@]65O)C4)O[C@@H]3C)O[C@@H]2C)C[C@H](O)[C@@H]1OC(=O)CCCOC(=O)CCC[N+](C)(C)C [digoxin-4"'-4-(4-trimethylaminobutyroyloxy)butyrate, bromide salt] | 420 min |
| CCCCCCCCCCCCCCCC(=O)OC(CC(=O)NCCCCCCOC(=O)OC1C(O)CC(OC2C(O)CC(OC3C(O)CC(OC4CCC5(C)C(CCC6C5CC(O)C5(C)C(C7=CC(=O)OC7)CCC65O)C4)OC3C)OC2C)OC1C)C[N+](C)(C)C (stereo not drawn) [digoxin-4"'-6-O-palmitoylcarnitinamido)hexyl carbonate, chloride salt] | 21 min |
| CC1OC(OC2C(O)CC(OC3C(O)CC(OC4CCC5(C)C(CCC6C5CC(O)C5(C)C(C7=CC(=O)OC7)CCC65O)C4)OC3C)OC2C)CC(O)C1OC(=O)OCCCCCCOC(=O)C[N+](C)(C)C (stereo not drawn) [digoxin-4"'-[1-(6-betainoyloxyhexyl)]carbonate, chloride salt] | 21 min |

same assay, conditions: human, serum, untitled table of digoxin derivatives (position/substituent); assay not given; read-out: Half Life (converted)

| SMILES | half-life |
| --- | --- |
| C[C@H]1O[C@@H](O[C@H]2[C@@H](O)C[C@H](O[C@H]3[C@@H](O)C[C@H](O[C@H]4CC[C@@]5(C)[C@H](CC[C@@H]6[C@@H]5C[C@@H](OC(=O)OCOC(=O)CCCCC[N+](C)(C)C)[C@]5(C)[C@@H](C7=CC(=O)OC7)CC[C@]65O)C4)O[C@@H]3C)O[C@@H]2C)C[C@@H]2OC(=O)O[C@@H]21 [digoxin 12-(6-trimethylaminohexanoyloxymethyl carbonate)-3"',4"'-cyclic carbonate, bromide salt] | 168 min |
| CC1OC(OC2C(C)OC(OC3C(C)OC(OC4CCC5(C)C(CCC6C5CC(O)C5(C)C(C7=CC(=O)OC7)CCC65O)C4)CC3OC(=O)OCOC(=O)CCCCC[N+](C)(C)C)CC2OC(=O)OCOC(=O)CCCCC[N+](C)(C)C)CC2OC(=O)OC12 (stereo not drawn) [digoxin-3',3"-bis-(6-trimethylaminohexanoyloxymethyl carbonate)-3'",4'"-cyclic carbonate, bromide salt] | 600 min |
